# Results from patent US20040127405A1, “Methods for treating lung infections and lung tumors and for treating and preventing lung metastases” (priority 2000, published 2004).
# Read-outs that look alike come from different tables or passages of the source. Ends that are not written are not given here. * marks the point of attachment. S‑(2,3-bisacyloxypropyl) = S-(2,3-bisacyloxypropyl) group on the cysteine sulfur (lipopeptide), acyl preferably palmitoyl; X1 = S‑(2,3-bispalmitoyloxy-(2R)-propyl)Cys, CCCCCCCCCCCCCCCC(=O)OC[C@H](CSC[C@H](N)C(=O)*)OC(=O)CCCCCCCCCCCCCCC
# How the values were obtained:
# lungs of rats = assay: Leukocyte counts in bronchoalveolar lavage (BAL) after intratracheal instillation in rats; type: in vivo, rat
# Description: In the majority of experiments, the biologically active, chemically synthesized 2-R-MALP-2 stereoisomer, corresponding to the natural compound, was used for intracheal administration. […] Both compounds were synthesized and purified as described in Example 1, and kept as 1 mg/ml stock solutions in a 33 vol. % 2-propanol, 67 vol. % water mixture. Stock solutions were diluted with pyrogen-free 0.9 wt. % sodium chloride solutions (Braun, Melsungen, Germany) shortly before application. Solvent controls consisted of corresponding mixtures without MALP-2.
# Intratracheal administration of the compounds was performed under short ether anesthesia. During this process, rats were suspended in a hanging position by a rubber band fixed to the rats' upper jaw teeth. After intubation of the trachea via the oral cavity, a total volume of 500 μl was administered. Before administration, the correct position of the tube was checked by blowing air into the lung.
# The animals' lungs were lavaged 10 times with 5 ml of cold 0.9 wt. % NaCl solutions via a tracheal cannula. The lavage fluid was pooled, and an average of >90% of the volume was recovered. The bronchoalveolar (BAL) cells were processed for blood leukocytes as described herein.
# The total cell numbers in the lung compartments (BAL, marginal pool, and interstitium) and in the blood were determined in a Neubauer counting chamber. Differential cell counts were assessed on cytospins. The slides were fixed in acetone for 10 min and washed with Tris-buffered saline containing 0.1 wt. % Tween 20. Cells were stained with a monoclonal antibody cocktail against lymphocytes (R73 for T cells, O×12 for B cells, and 3.2.3 for natural killer cells [all cells available from Serotec, Oxford, United Kingdom]). At least 400 cells were differentiated on each slide. In addition, neutrophils and macrophages were morphologically identified by May-Grünwald and/or Giemsa staining.
# For flow cytometry, cells were transferred into microtiter plates (10^6 cells/well) and washed twice in PBS containing 1% BSA and 0.1% NaN3. The staining was performed with the appropriate primary antibodies described below. After the cells were washed twice, the secondary antibody was incubated for 30 min at 4° C. The cells were analyzed by using a FACScan flow cytometer (Becton Dickinson, Mountain View, Calif.), focusing on the lymphocyte cluster. CD8^+ T cells were identified as R73^+ O×8^+; CD4^+ T cells were identified as R73^+ O×8^−; memory CD4^+ T cells were identified as O×22^− W3/25^high; naive T cells were identified as O×22^+ W3/25^high; and monocytes were identified as O×22^− W3/25^low. Dendritic cells were identified as low-autofluorescence cells, non-T and non-B lymphocytes, and double positive for O×6 and O×62 (Lambrecht et al., 1999. Am. J. Respir. Cell. Mol. Biol. 20:1165-1174). All primary antibodies were monoclonal mouse anti-rat (Serotec). Unconjugated antibodies were detected by using phycoerythrin-conjugated secondary antibody (KPE; Dianova, Hamburg, Germany) and biotinylated primary antibodies with Red 670-streptavidin (Gibco, Gaithersburg, Md.). Isotype-matched antibodies served as a control.
# To investigate whether the lipopeptide MALP-2 would be able to exert effects in the lungs, 2.5 μg of the natural stereoisomer 2R-MALP-2 was instilled into the lungs of anesthetized rats. […] Taken together, only the natural 2R stereoisomer of MALP-2 specifically affected the cell counts and distribution of subsets in the BAL.
# With respect to FIG. 2, the data are means±the standard error of the mean (SEM; n=six per group).
# With respect to FIG. 3, rats were sacrificed at the indicated time points after instillation of 2.5 μg of 2R-MAPL-2, and leukocytes in the bronchoalveolar lavage (BAL) were determined as described. The data are means±the SEM (n=5 per group).
# With respect to FIG. 4, data are means±the SEM (n=8 per group). […]
# [1] = tested on: lymphatic tissue in the bronchial mucosa; assay: Lymphatic tissue in the bronchial mucosa after repeated inhalation in rats; type: in vivo, rat; settings: inhalation by mask, 30 μg doses on six occasions at one-week intervals
# Description: They were maintained under specific-pathogen-free conditions until administration of compounds in accordance with the invention.
# With the aid of a mask, rats were made to inhale 30 μg doses of MALP-2 on six occasions at one-week intervals.
# [2] = intraperitoneal injection of a few μg; cited from earlier work
# MADB106 tumor cells = assay: Lung metastasis after intravenous MADB106 tumor cell inoculation in F344 rats; settings: intratracheal
# [3] = 3 μg instilled into the trachea
# [4] = 2.5 μg intratracheal, three days, P<0.01, FIG. 2
# [5] = three days after application, FIG. 4
substance,measurement,setting,value
"MALP-2: macrophage-activating lipopeptide MALP-2 (an S-(2,3-bisacyloxypropyl)-cysteine peptide) isolated from Mycoplasma fermentans; stereochemistry not stated where tested (C(S‑(2,3-bisacyloxypropyl))GNNDESNISFKEK; not fully specified; also: acyl groups not given here, alternative: 2,3-diacylglyceryl-serinyl)",number of leukocytes in the respiratory tracts and the alveolar space (BAL),"lungs of rats; 3 μg instilled into the trachea, after a few hours, lasts for a few days, FIG. 1",increase in the number of leukocytes
same,lymphatic tissue in the bronchial mucosa,[1],increase in the lymphatic tissue
same,leukocyte infiltration,[2],brought about leukocyte infiltration
same,effects on lung colonization of tumor cells,"MADB106 tumor cells; one day after tumor cell injection, FIG. 5B",no effects
same,reduction of lung metastasis compared with sham-injected animals,"MADB106 tumor cells; simultaneously with tumor cell inoculation, counted 3 wk after inoculation, P=0.0006, FIG. 5A",44%
same,effects on lung colonization of tumor cells,"MADB106 tumor cells; three days after tumor cell injection, FIG. 5C",no effects
same,adverse effect on the animals,[3],not detectable
same,"food consumption, bodyweight, activity and behavior",[3],not noteworthy
same,"food consumption, bodyweight, activity and behavior","inhalation, 30 μg doses on six occasions at one-week intervals",clinically not noteworthy
"S-[2,3-bispalmitoyloxy-(2R)-propyl]cysteinyl-GNNDESNISFKEK (X1-GNNDESNISFKEK) [2R-MALP-2]",time of maximal lymphocyte accumulation in the BAL,lungs of rats; 2.5 μg intratracheal,72 h
same,lymphocyte numbers in the BAL,"lungs of rats; 2.5 μg intratracheal, 24 h (0 h: [0.04±0.01]×10^6), mean±SEM",0.6±0.1 ×10^6
same,lymphocyte numbers in the BAL,"lungs of rats; 2.5 μg intratracheal, 48 h, mean±SEM",0.9±0.1 ×10^6
same,lymphocyte numbers in the BAL (maximal accumulation),"lungs of rats; 2.5 μg intratracheal, 72 h after instillation, mean±SEM",1.2±0.1 ×10^6
same,all investigated cell types in the BAL,"lungs of rats; 2.5 μg intratracheal, after 10 days",returned to control levels
same,increase of total cell number in the BAL,"lungs of rats; 2.5 μg intratracheal, six hours after treatment, FIG. 3",about 10 -fold
same,total cell number in the BAL,"lungs of rats; 2.5 μg intratracheal, three days after application, vs vehicle control, FIG. 2",clearly increased
same,alveolar macrophages (AM) in the BAL,lungs of rats; [4],significant increase
same,lymphocytes in the BAL,lungs of rats; [4],significant increase
same,neutrophils in the BAL,lungs of rats; [4],significant increase
same,time of maximal cell count in the BAL,"lungs of rats; 2.5 μg intratracheal, FIG. 3",24 h
same,increase in B cells and monocytes in the BAL,lungs of rats; [5],"lower, but still significant"
same,"increase in T lymphocytes, NK cells and dendritic cells in the BAL",lungs of rats; [5],highest relative increase
same,increase of leukocyte subpopulations in the BAL (flow cytometry),"lungs of rats; three days after application, P<0.01 vs control vehicle, FIG. 4",significant
